The values that follow come from a melting point compilation (Tetko et al.).

`O=C(O)C=CC(=O)Nc1ccc(F)cc1`: the melting point – broadly, the temperature, or range, at which the solid turns liquid – was 209 to 212 °C.
`COc1ccc(OC)c(C=CC(=O)n2cnc3c(N)ncnc32)c1` yielded a melting point of 260 to 262 °C.
Next, `Clc1ccc(I)cn1`: 97 °C; `COC(=O)c1sccc1N1C(=O)C=CC1=O`: 130 to 131 °C; `ICCc1ccc(CCI)cc1`: 111 °C.
Next, `Cn1c2cc(N3CCCC3)cc(-c3ccccc3)c2c(=O)n1-c1ccccc1`: 159 °C; `CCCCCOC=O`: -73.5 °C; `CC(C)=CCCC(C)=CC=CC(C)=CC=CC(C)=CC=CC=C(C)C=CC=C(C)C=CC=C(C)CCC=C(C)C`: 175 °C.
Compound `O=C(Oc1c(F)c(F)c(F)c(F)c1F)C1CCN(c2ncnc3ccsc23)CC1` displayed a melting point of 99 to 104 °C.
In turn, `COC(=O)c1c2c(c(C)c3c1CC3=O)C(=O)C2` gave a melting point of 168 °C.
To `O=Cc1ccc(-c2ccc(C=O)cc2)cc1` belongs 148 °C; to `CC(C)(C)N(NC(=O)c1ccccc1)C(=O)c1ccccc1`, 178 °C; to `CC(=O)c1ccc(OCc2ccc(F)cc2)c([N+](=O)[O-])c1`, 105 to 107 °C.
Regarding `CCCCCCCCCCCCCCCCCC(=O)OCCOCCOCCOCCO`, the melting point came out at 40 °C.
To `CCC(CO)(CO)CO` belongs 60 °C; to `O[C@@H]1CC2=C(CCCC2)C[C@@H]1O`, 120 to 121 °C; to `O=C(O)c1cccc(-c2cc[nH]n2)c1`, 204 °C.
With `O=C1Cc2cc3c(cc21)OCO3`, the melting point came to 126 °C.
`CC(=O)N1c2cc3[nH]c(C)cc3cc2CC1C` (stereo not drawn) showed a melting point of 275 °C.
In the case of `Cc1ccnc(N)c1[N+](=O)[O-]`, the melting point was 136 to 141 °C.
`O=C(O)CSC=Cc1ccccc1` showed a melting point of 81 to 84 °C.
Turning to `C=CCl`, the melting point is -154 °C.
To `N#Cc1cc([N+](=O)[O-])cc(Cl)c1N` belongs 180 to 185 °C; to `Cc1cc(=O)oc2cc(OCC(=O)Cl)ccc12`, 129 °C; to `Ic1cn[nH]c1`, 109 °C.
To `NCCC(c1ccccc1)c1ccccc1` belongs 29 to 31 °C; to `CON(C)C(=O)Nc1ccc(Br)c(Cl)c1`, 96 °C.
`Cc1ccc(NN=C2C(=O)NN=C2c2c(O)c3ccccc3n(C)c2=O)cc1`: the melting point was 218 °C.
Next, `O=C(O)c1c[nH]cn1`: 243 to 245 °C; `O=C(O)CCSSCCC(=O)O`: 158 °C.
Next, `Clc1ccc2scc(CBr)c2c1`: 129 to 130 °C; `CC(=O)C(=O)Nc1ccc(Br)cc1`: 166 °C.
Next, `O=C(Nc1cccc([N+](=O)[O-])c1)Nc1cccc([N+](=O)[O-])c1`: 234 °C.
Compound `O=[N+]([O-])c1ccc(-c2ccccc2)cc1` returned a melting point of 114 °C.
Compound `O=C1C(Cl)=C(Cl)C(=O)C(NCc2ccccc2)=C1Cl` gave a melting point of 231 °C.
To `O=C(O)/C(=C/c1cccc2ccccc12)c1ccccc1` belongs 160 to 161 °C; to `Cc1onc(-c2c(Cl)cccc2Cl)c1C=O`, 100 to 103 °C.
In the case of `CC(=O)O[C@]12CC[C@@H](C(C)(C)C)C[C@H]1O[C@@H]2c1c(F)c(F)c(F)c(F)c1F`, the melting point was found to be 83 °C.
Next, `O=C(c1ccccc1)c1ccc(Cl)c([N+](=O)[O-])c1`: 105 °C; `N#C/C(=C\c1cccnc1)c1nc2ccccc2[nH]1`: 228 °C; `CCOC(=O)c1cc2c(=O)oc3ccccc3c2n(C)c1=O`: 202 to 203 °C.
To `O=Cc1cc(Br)cc2c1OCC2` belongs 94 to 95 °C; to `CSc1ccc(O)cc1C`, 56 °C; to `NC(=O)c1ccc(F)cc1F`, 161 °C.
Next, `O=Cc1c[nH]nc1-c1ccc(F)cc1`: 160 to 164 °C; `OCCn1ccnc1`: 39 °C.
With `Cc1cc(C(F)(F)F)n2nc(-c3ccccc3)cc2n1`, the melting point was 174 °C.
In the case of `CN(C)c1ccc(C=O)c(Cl)c1`, the melting point lay in the range of 83 to 84 °C.
To `CC1=C(C(=O)OCC(C)C)C(c2ccc3c(c2)OCO3)NC(=O)N1` (stereo not drawn) belongs 178 °C; to `OCc1ccc2nsnc2c1`, 58 to 63 °C; to `Oc1ccc2cc(Br)ccc2c1`, 128 °C.
Next, `COc1c2ccoc2cc2oc(COC3OC(CO)C(O)C(O)C3O)cc(=O)c12` (stereo not drawn): 179 °C.
Next, `N#CC1CCCC1`: -76 °C; `c1ccc(Cc2nc3ccccc3nc2Cc2ccccc2)cc1`: 118 °C; `CC12CCC(O)CC1CCC1C2CCC2(C)C1CCC2(O)C#Cc1ccccc1` (stereo not drawn): 120 to 123 °C.
Compound `Nc1ccc(C2=NNC(=O)CC2)cc1` showed a melting point of 242 to 244 °C.
Consider `N[C@H](c1ccccc1)[C@@H](O)c1ccccc1`, for which the melting point was in the range of 142 to 144 °C.
`CC1(C)CC(=O)c2cc(-c3ccccc3)n(CCc3ccccc3)c2C1` came in with a melting point of 113 to 115 °C.
Compound `Nc1c(Br)cc(Br)cc1[N+](=O)[O-]` came in with a melting point of 130 °C.
Next, `N#Cc1cnc2[nH]ccc2c1`: 228 °C; `O=C(Cl)c1cc2c(Cl)cc(Cl)cc2[nH]1`: 173 to 175 °C.
Compound `O=C1Nc2ccccc2CCC1Br` (stereo not drawn) gave a melting point of 164 to 168 °C.
`Cc1nc(C)c(Cl)c(O)c1Cl` gave a melting point of 320 °C.
Turning to `O=C(O)c1cc(-c2ccccc2)on1`, the melting point fell in the range of 192 to 200 °C.
To `O=[N+]([O-])c1cc(O)ccc1Cl` belongs 127 °C; to `O=C(O)CNCCNCC(=O)O`, 224 to 225 °C; to `CCCCCCCCCCCCCCCCCCCO`, 63.3 °C.
Next, `Nc1ncn[nH]1`: 159 °C; `O=CCCCCC=O`: -8 °C; `C#CCCCCCCCCCC`: -19 °C.
Turning to `COc1cc(N)c(Cl)cc1C(=O)O`, the melting point fell in the range of 206 to 210 °C.
For `Cc1cc(C)nc(NN)n1`, the melting point was in the range of 166 to 167 °C.
In turn, `Cc1ccc(NC=CC(=O)c2ccc3c(c2)CCCC3)cc1` returned a melting point of 139 °C.
To `CC1=C(C(=O)OCC(C)C)C(c2ccco2)NC(=O)N1` (stereo not drawn) belongs 170 to 171 °C.
To `O=C(O)C1=CCCc2ccccc21` belongs 125 °C; to `Cc1onc(-c2c(Cl)cccc2Cl)c1C(N)=O`, 166 to 168 °C; to `CC1CCC(C)(COC(=O)c2ccc(N)cc2)C1(C)C` (stereo not drawn), 74 °C.
To `O=C(O)C1c2ccccc2C(=O)N(Cc2ccc(F)cc2)C1c1ccncc1` (stereo not drawn) belongs 243 to 245 °C; to `CC(=O)OC1CC2C3CCC(C(C)CCCC(C)C)C3(C)CCC2C2(C)CCC(O)CC12O` (stereo not drawn), 141 °C.
Consider `Cc1cccc2c1CC(C(=O)O)N(C(=O)OC(C)(C)C)C2` (racemic), for which the melting point was in the range of 142 to 144 °C.
Consider `COC(=O)c1cc2cc3cc(C(=O)OC)c(C(=O)OC)cc3cc2cc1C(=O)OC`, for which the melting point is 220 °C.
Next, `CC(=O)NCCS`: 6.5 °C; `CCOC(=O)C1=C(C)NC(C)=C(C(=O)OCC)C1`: 180 °C.
The compound `O=Cc1c(-c2ccccc2)nc2n1CCS2` had a melting point of 127 to 128 °C.
`O=Cc1cnc(Br)s1` returned a melting point of 94 °C.
The compound `COc1c(C(C)C)oc2cc3oc(=O)ccc3cc12` yielded a melting point of 85 °C.
To `O=C1c2ccccc2C(=C(c2ccccc2)c2ccccc2)c2ccccc21` belongs 203 to 207 °C.
Next, `N#Cc1ccc(N=C=S)cc1`: 120 °C.
`CC(C#N)c1ccccc1[N+](=O)[O-]` (stereo not drawn): the melting point came to 51 °C.
Next, `CC(=O)CC(c1ccc(Cl)cc1)c1c(O)c2ccccc2oc1=O` (stereo not drawn): 170 °C; `CC(NC(=O)C(C(F)(F)F)C(F)(F)F)c1ccccc1` (stereo not drawn): 137 °C.
For `O=C(O)c1snnc1-c1ccccc1`, the melting point was 144 to 145 °C.
Compound `Clc1cccc(Cl)c1N=C1NCCN1` came in with a melting point of 130 °C.
With `CCCCCCCCC=CCCCCCCCCCCCCO`, the melting point was determined as 35 °C.
Compound `Fc1ccc(-c2ccc(Br)cc2)cc1` gave a melting point of 95 to 96 °C.
With `Cc1cc(C)c(N=C=O)c(C)c1`, the melting point was found to be 44.5 °C.
As for `COc1ccc(CCNCC(O)COc2cccc(C)c2)cc1OC` (stereo not drawn), the melting point came out at 138 °C.
To `CC1CCCC(=O)C1=O` (stereo not drawn) belongs 58 °C; to `O=C(CCCCl)c1ccc(Cl)cc1`, 30 °C; to `O=C1CC2OCC=C3CN4CCC56c7ccccc7N1C5C2C3CC46` (stereo not drawn), 287 °C.
As for `CC(C)S(=O)(=O)O`, the melting point was -37 °C.
With `NC(=O)c1c(F)ccc(F)c1F`, the melting point came out at 117 °C.
Next, `FC(F)(F)c1ccc(-c2nnn[nH]2)cc1`: 226 °C; `O=C(O)/C=C/c1ccc(F)cc1F`: 214 to 218 °C.
In turn, `N#Cc1ccc(-c2ccc(C(F)(F)F)cn2)cc1` came in with a melting point of 123 to 124 °C.
To `Cc1cc[nH]c1` belongs -48.4 °C; to `c1ccc(Cc2ccc3c4ccccc4c4ccccc4c3c2Cc2ccccc2)cc1`, 178 °C; to `Cc1cc(C)c(CS(=O)(=O)Cc2c(C)cc(C)cc2C)c(C)c1`, 297 to 300 °C.
To `O=C(O)c1cc(Br)c(C(=O)O)cc1Br` belongs 315 to 318 °C; to `Nc1ccccc1N1CCNCC1`, 115 °C; to `Clc1cc2oc3c(Cl)c(Cl)ccc3c2cc1Cl`, 195 °C.
To `Cn1ncc2cc([N+](=O)[O-])ccc21` belongs 160 °C; to `CC(C=O)=CN`, 101 to 103 °C.
